According to patent US9040523B2, “Antifungal 5,6-dihydro-4H-pyrrolo[1,2-α][1,4]-benzodiazepines and 6H-pyrrolo[1,2-α][1,4]benzodiazepines substituted with benzene derivatives” (JANSSEN PHARMACEUTICA NV, priority 2010, dated 2015):

Columns and labels:
CYP2D6 = CYP2D6 (Homo sapiens, UniProt P10635); experiment: Cytochrome P450 inhibition, Protocol A, cDNA expressed proteins, fluorogenic substrate; type: in vitro ADME; conditions: % inhibition at 10 μM; substrate AMMC; cDNA expressed protein
Procedure: (§1) All fluorogenic based assays were performed in Black Costar 96-well plates according to Crespi et al 1997 with minor modifications (Crespi C L, Miller V P & Penman B W (1997). Microtiter plate assays for inhibition of human, drug-metabolizing cytochromes P450. Anal. Biochem. Vol 248, 1898-1900). Assay conditions are outlined in Table 5a. For cytochrome P450 3A4, three different fluorogenic substrates were used. Each reaction mixture consisted of the appropriate concentration of enzyme, NADPH-generating system (“NADPH” means β-nicotinamide adenine dinucleotide phosphate, reduced), substrate in sodium/potassium buffer (pH 7.4). For each cytochrome P450 batch Michealis-Menten kinetics were determined using 11 concentrations.
(§2) Thereafter, further dilutions were made in acetonitrile. […] The compounds were serially diluted to give final concentrations ranging from 1 nM to 10 μM. The reaction mixtures, whereby 1 μL of buffer was replaced by compound solution, were pre-warmed for 5 min at 37° C. and the reaction was initiated by the addition of β-nicotinamide adenine dinucleotide phosphate (NADP+). Reactions were terminated by addition of stopping reagent and the fluorescence was measured using a Fluoroscan (Labsystems, Brussel, Belgium).
(§3) In Table 5a, the following abbreviations were used: 3-cyano-7-ethocycoumarin (CEC), 7-methoxy-4-trifluoromethylcoumarin (MFC), 3-[2-(N,N-diethyl-N-methylamino)ethyl]-7-methoxy-4-methylcoumarin (AMMC), 7-benzyloxy-trifluoromethyl coumarin (BFC), 7-benzyloxyquinoline (BQ) and dibenzyl fluorescein (DBF).

CYP2C9 = CYP2C9 (Homo sapiens, UniProt P11712); experiment: as above; type: in vitro ADME; conditions: % inhibition at 10 μM; substrate MFC; cDNA expressed protein
CYP2C9, sequence (P11712 whole entry): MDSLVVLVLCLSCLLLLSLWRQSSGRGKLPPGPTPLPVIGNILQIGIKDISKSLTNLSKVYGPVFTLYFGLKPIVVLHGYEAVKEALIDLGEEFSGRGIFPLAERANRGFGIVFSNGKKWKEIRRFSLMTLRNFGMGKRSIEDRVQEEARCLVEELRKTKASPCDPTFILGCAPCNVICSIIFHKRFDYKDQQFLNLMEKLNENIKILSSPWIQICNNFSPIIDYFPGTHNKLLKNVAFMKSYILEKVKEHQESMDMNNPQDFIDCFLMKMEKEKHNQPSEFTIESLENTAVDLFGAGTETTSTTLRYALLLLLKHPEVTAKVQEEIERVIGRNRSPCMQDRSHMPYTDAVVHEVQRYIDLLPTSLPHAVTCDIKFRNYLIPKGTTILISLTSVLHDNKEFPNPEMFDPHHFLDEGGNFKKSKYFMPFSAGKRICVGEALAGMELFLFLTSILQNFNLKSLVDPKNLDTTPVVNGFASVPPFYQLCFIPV
Procedure: as §1, §2, §3

CYP1A2 = target: T1, CYP1A2 (Homo sapiens, UniProt P05177); experiment: as above; type: in vitro ADME; conditions: % inhibition at 10 μM; substrate CEC; cDNA expressed protein
T1 sequence (P05177 1-516): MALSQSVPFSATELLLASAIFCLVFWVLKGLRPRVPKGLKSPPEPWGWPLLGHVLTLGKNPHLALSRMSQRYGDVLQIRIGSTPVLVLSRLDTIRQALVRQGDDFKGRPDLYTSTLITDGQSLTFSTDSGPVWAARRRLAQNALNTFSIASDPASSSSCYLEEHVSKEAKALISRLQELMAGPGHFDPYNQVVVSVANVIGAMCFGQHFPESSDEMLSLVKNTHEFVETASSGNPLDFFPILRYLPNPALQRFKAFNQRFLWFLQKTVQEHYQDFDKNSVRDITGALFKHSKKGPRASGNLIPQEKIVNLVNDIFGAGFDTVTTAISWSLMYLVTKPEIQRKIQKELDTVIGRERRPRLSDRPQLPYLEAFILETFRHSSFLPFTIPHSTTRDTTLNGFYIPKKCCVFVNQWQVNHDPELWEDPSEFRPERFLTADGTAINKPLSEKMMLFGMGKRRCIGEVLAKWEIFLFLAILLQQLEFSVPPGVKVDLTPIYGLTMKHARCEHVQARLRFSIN
Procedure: as §1, §2, §3

CYP3A4 = CYP3A4 (Homo sapiens, UniProt P08684); experiment: Cytochrome P450 inhibition, Protocol A, cDNA expressed proteins, fluorogenic substrates; type: in vitro ADME; conditions: % inhibition at 10 μM, cDNA expressed protein; for hCYP3A4_BFC_Pct_Inh: substrate BFC; for hCYP3A4_BQ_Pct_Inh: substrate BQ; for hCYP3A4_DBF_Pct_Inh: substrate DBF
CYP3A4, sequence (P08684 whole entry): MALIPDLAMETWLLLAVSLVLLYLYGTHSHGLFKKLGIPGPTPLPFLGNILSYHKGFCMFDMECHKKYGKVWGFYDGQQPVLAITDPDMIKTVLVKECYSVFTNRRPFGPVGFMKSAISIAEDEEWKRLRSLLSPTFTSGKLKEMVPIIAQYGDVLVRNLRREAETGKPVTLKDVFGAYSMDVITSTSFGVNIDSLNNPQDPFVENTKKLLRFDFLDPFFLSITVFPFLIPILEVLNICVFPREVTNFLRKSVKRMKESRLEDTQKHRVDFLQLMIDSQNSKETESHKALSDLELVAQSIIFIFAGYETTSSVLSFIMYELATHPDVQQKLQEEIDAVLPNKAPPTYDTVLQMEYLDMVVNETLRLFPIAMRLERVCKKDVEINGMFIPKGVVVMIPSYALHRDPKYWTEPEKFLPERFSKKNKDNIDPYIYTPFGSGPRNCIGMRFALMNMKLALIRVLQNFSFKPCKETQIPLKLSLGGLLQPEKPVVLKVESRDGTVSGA
Procedure: as §1, §2, §3

Microsporum canis B68128 = experiment: Antifungal activity in vitro (resazurin susceptibility screen), Inf. B; type: cell-based; conditions: 27 °C, 9 days, resa time 24 hours; for IC50: Microsporum canis, B68128, Microsporum canis B68128, read-out: Inf. B pIC50 (converted)
Procedure: (§4) The standard susceptibility screen was performed in 96-well plates (U-bottom, Greiner Bio-One). […] These serial dilutions (10 n1) were then spotted onto test-plates that could be stored in the dark at 4° C. for a maximum period of 2 weeks. […] A standard inoculum of 200 μl containing 10^3 colony-forming unit (cfu) was then added to each well. A positive control (100% growth=fungal culture without antifungal) and a negative control (0% growth ═RPMI-MOPS medium) were included on each plate.

[1] = test system: Trichophyton rubrum B68183; experiment: Antifungal activity in vitro (resazurin susceptibility screen), Inf. C; type: cell-based; conditions: Trichophyton rubrum B68183; 27 °C, 7 days, resa time 24 hours; read-out: Inf. C pIC50 (converted)
Procedure: (§5) The standard susceptibility screen was performed in 96-well plates (U-bottom, Greiner Bio-One). […] These serial dilutions (10 n1) were then spotted onto test-plates that could be stored in the dark at 4° C. for a maximum period of 2 weeks. […] The different fungal species/isolates (Table 3a) were cryopreserved and 1/1000 diluted in medium just prior to use. A standard inoculum of 200 μl containing 10^3 colony-forming unit (cfu) was then added to each well. A positive control (100% growth=fungal culture without antifungal) and a negative control (0% growth ═RPMI-MOPS medium) were included on each plate. […] [table]

[2] = test system: Cryptococcus neoformans B66663; experiment: Antifungal activity in vitro (resazurin susceptibility screen), Inf. F; type: cell-based; conditions: 37 °C, 24 hours, resa time 4 hours; for IC50: Cryptococcus neoformans, B66663, Cryptococcus neoformans B66663, read-out: Inf. F pIC50 (converted)
Procedure: as §5

[3] = test system: Sporothrix schenkii B62482; experiment: Antifungal activity in vitro (resazurin susceptibility screen), Inf. A; type: cell-based; conditions: Sporothrix, B62482, Sporothrix schenkii B62482; 27 °C, 4 days, resa time 24 hours; highest in-test concentration 64 μM; read-out: Inf. A pIC50 (converted)
Procedure: as §5

[4] = test system: Trichophyton mentagrophytes B70554; experiment: Antifungal activity in vitro (resazurin susceptibility screen), Inf. G; type: cell-based; conditions: Trichophyton mentagrophytes, B70554, Trichophyton mentagrophytes B70554; 27 °C, 7 days, resa time 24 hours; read-out: Inf. G pIC50 (converted)
Procedure: as §4

[5] = test system: Candida parapsilosis B66126; experiment: Antifungal activity in vitro (resazurin susceptibility screen), Inf. D; type: cell-based; conditions: Lodderomyces parapsilosis; Candida parapsilosis B66126; 37 °C, 24 hours, resa time 4 hours; read-out: Inf. D pIC50 (converted)
Procedure: as §4

[6] = test system: Aspergillus fumigatus B42928; experiment: Antifungal activity in vitro (resazurin susceptibility screen), Inf. E; type: cell-based; conditions: Aspergillus fumigatus B42928; 27 °C, 48 hours, resa time 17 hours; read-out: Inf. E pIC50 (converted)
Procedure: as §5

CYP2D6, sequence (P10635 whole entry): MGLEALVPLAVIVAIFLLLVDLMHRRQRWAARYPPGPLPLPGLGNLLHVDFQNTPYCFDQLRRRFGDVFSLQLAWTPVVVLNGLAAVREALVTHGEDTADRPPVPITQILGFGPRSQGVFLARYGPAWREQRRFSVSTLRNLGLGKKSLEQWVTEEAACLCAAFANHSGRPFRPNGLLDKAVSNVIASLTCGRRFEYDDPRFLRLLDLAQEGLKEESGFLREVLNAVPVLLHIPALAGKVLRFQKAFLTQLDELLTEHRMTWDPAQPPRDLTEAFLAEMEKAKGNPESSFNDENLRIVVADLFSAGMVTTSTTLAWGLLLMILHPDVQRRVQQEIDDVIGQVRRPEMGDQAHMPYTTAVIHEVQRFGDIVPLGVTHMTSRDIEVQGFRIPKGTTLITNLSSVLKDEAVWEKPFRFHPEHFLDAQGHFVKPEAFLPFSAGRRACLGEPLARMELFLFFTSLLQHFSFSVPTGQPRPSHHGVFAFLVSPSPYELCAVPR

SMILES	hCYP2D6_AMMC_Pct_Inh (CYP2D6)	hCYP2C9_MFC_Pct_Inh (CYP2C9)	hCYP1A2_CEC_Pct_Inh (CYP1A2)	hCYP3A4_BFC_Pct_Inh (CYP3A4)	hCYP3A4_BQ_Pct_Inh (CYP3A4)	hCYP3A4_DBF_Pct_Inh (CYP3A4)	IC50 (Microsporum canis B68128)	melting point	IC50 [1]	IC50 [2]	IC50 [3]	IC50 [4]	IC50 [5]	IC50 [6]	Inf. B pIC50 (Microsporum canis B68128; Microsporum canis B68128)	Inf. F pIC50 ([2]; Cryptococcus neoformans B66663)
CC(=O)c1ccc(C2NCc3c(Cl)cccc3-n3cccc32)cc1.Cl (stereo not shown)	53%	54%	12%	57%	57%	70%										
CCc1ccc(C2NCc3c(Cl)cccc3-n3cccc32)cc1.Cl (stereo not shown)	96%	68%	48%	64%	57%	69%										
CCc1ccc(C2=NCc3ccc(Cl)cc3-n3cccc32)cc1	33%	50%	40%	55%	66%	70%										
CC(=O)c1ccc(C2NCc3ccc(Cl)cc3-n3cccc32)cc1 (stereo not shown) [Compound 8, 1-[4-(9-chloro-5,6-dihydro-4H-pyrrolo[1,2-a][1,4]benzodiazepin-4-yl)phenyl]-ethanone]							> 63.1 µM	185.4 to 186.9 °C	2 µM	50.1 µM	31.6 µM	5.01 µM	> 63.1 µM	12.6 µM		
CC(=O)c1ccc(C2NCc3c(Cl)cc(Cl)cc3-n3cccc32)cc1 (stereo not shown) [Compound 11, 1-[4-(7,9-dichloro-5,6-dihydro-4H-pyrrolo[1,2-a][1,4]benzodiazepin-4-yl)phenyl]-ethanone]								204.8 to 206.6 °C	2 µM		50.1 µM	5.01 µM	> 63.1 µM	> 63.1 µM	6.0	5.2
CC(=O)c1ccc(C2NCc3cc(Cl)cc(Cl)c3-n3cccc32)cc1.Cl (stereo not shown) [Compound 14, 1-[4-(8,10-dichloro-5,6-dihydro-4H-pyrrolo[1,2-a][1,4]benzodiazepin-4-yl)phenyl]-ethanone .HCl]							2.51 µM	259.3 to 264.5 °C	0.631 µM	50.1 µM	25.1 µM	25.1 µM	> 63.1 µM	> 63.1 µM		
CS(=O)(=O)c1ccc(C2=NCc3c(F)cccc3-n3cccc32)cc1 [Compound 29, 7-fluoro-4-[4-(methylsulfonyl)phenyl]-6H-pyrrolo[1,2-a][1,4]benzodiazepine]							10 µM	92 to 95 °C	2.51 µM	31.6 µM	> 63.1 µM	6.31 µM	> 63.1 µM	50.1 µM		
CS(=O)(=O)c1cccc(C2=NCc3c(Cl)cc(Cl)cc3-n3cccc32)c1 [Compound 31, 7,9-dichloro-4-[3-(methylsulfonyl)phenyl]-6H-pyrrolo[1,2-a][1,4]benzodiazepine]							> 63.1 µM	221.2 to 221.5 °C	> 63.1 µM	> 63.1 µM	> 63.1 µM	> 63.1 µM	> 63.1 µM	> 63.1 µM		
CC(=O)c1ccc(C2=NCc3ccc(Cl)cc3-n3cccc32)cc1 [drawing 86]	20%	69%	21%	7%	50%	40%										
CC(=O)c1ccc(C2=NCc3c(Cl)cccc3-n3cccc32)cc1 [drawing 88]	18%	82%	33%	2%	33%	21%										
CCc1ccc(C2=NCc3c(Cl)cccc3-n3cccc32)cc1 [drawing 89]	52%	41%	60%	45%	62%	64%										
CS(=O)(=O)c1ccc(C2=NCc3c(Cl)cccc3-n3cccc32)cc1 [drawing 90]	5%	48%	5%	5%	17%	1%										
